Measurements: US10597388B2, “Pyridazinone herbicides” (FMC CORPORATION, priority 2014, dated 2020)
Like-named read-outs stand apart in the source and are kept apart here.

Assays:
Format in all cases: in vivo
[1] = test system: galium (catchweed bedstraw, Galium aparine); assay: Test C greenhouse herbicide test, pre- and postemergence
Outline: (§1)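 Pre- and postemergence greenhouse screen; values are visual control ratings, 0 meaning no effect and 100 complete kill, assigned relative to untreated plants after 13 to 15 d.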

[2] = test system: barnyardgrass (Echinochloa crus-galli); assay: as above
Outline: as §1

[3] = test system: wheat (winter wheat, Triticum aestivum); assay: as above
Outline: as §1

[4] = test system: blackgrass (Alopecurus myosuroides); assay: Test A greenhouse herbicide test, postemergence; conditions: Alopecurus myosuroides, post-emergence, 240 h; for pest or weed control at 125 g/ha: 125 g ai/ha, read-out: Plant response rating, Blackgrass; for pest or weed control at 500 g/ha: 500 g ai/ha, 0 to 100 scale, 0 is no effect, 100 is complete control, read-out: Blackgrass plant response rating
Outline: (§2)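 Visual injury score, 0 (no effect) to 100 (complete control), versus untreated controls roughly 10 d after postemergence spray; plants at one- to two-leaf stage, 2 to 10 cm tall, in loam soil and sand, kept in greenhouse.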

[5] = test system: galium (catchweed bedstraw, Galium aparine); assay: Test A greenhouse herbicide test, postemergence; conditions: Galium, post-emergence, 240 h; for pest or weed control at 125 g/ha: 125 g ai/ha, read-out: Plant response rating, Galium; for pest or weed control at 500 g/ha: 500 g ai/ha, 0 to 100 scale, 0 is no effect, 100 is complete control, read-out: Galium plant response rating
Outline: as §2

[6] = test system: barnyardgrass (Echinochloa crus-galli); assay: Test A greenhouse herbicide test, pre- and postemergence; conditions: Echinochloa crus-galli, 240 h; for pest or weed control at 125 g/ha: 125 g ai/ha; for pest or weed control at 500 g/ha: 500 g ai/ha, 0 to 100 scale
Outline: (§3)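 Seeds in loam–sand blend received a preemergence directed soil spray; plants at 2–10 cm, one- to two-leaf stage, received postemergence sprays. Compounds in a non-phytotoxic solvent with surfactant. After about 10 d in a greenhouse, injury rated visually versus untreated controls on a 0–100 scale (100 = complete control).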

[7] = test system: corn (Zea mays); assay: as above; conditions: Zea mays, post-emergence, 240 h, Postemergence; for Corn plant response rating (crop injury, 0 = no effect, 100 = complete kill) at 125 g/ha: 125 g ai/ha; for plant injury at 500 g/ha: 500 g ai/ha, 0 to 100 scale, 0 is no effect, 100 is complete control, read-out: Corn plant response rating
Outline: as §3

[8] = test system: ragweed (common ragweed, Ambrosia elatior); assay: as above; conditions: Ambrosia artemisiifolia, 240 h; for pest or weed control at 125 g/ha: 125 g ai/ha; for pest or weed control at 500 g/ha: 500 g ai/ha, 0 to 100 scale
Outline: as §3

[9] = test system: pigweed (Amaranthus retroflexus); assay: as above; conditions: Amaranthus retroflexus, 240 h; for pest or weed control at 125 g/ha: 125 g ai/ha; for pest or weed control at 500 g/ha: 500 g ai/ha, 0 to 100 scale
Outline: as §3

[10] = test system: foxtail, giant (giant foxtail, Setaria faberii); assay: as above; conditions: Setaria faberi, 240 h; for pest or weed control at 125 g/ha: 125 g ai/ha; for pest or weed control at 500 g/ha: 500 g ai/ha, 0 to 100 scale
Outline: as §3

[11] = Postemergence, 31 g ai/ha, 0 to 100 scale (0 no effect, 100 complete control)
[12] = Postemergence, 125 g ai/ha, scale 0 to 100, 0 is no effect, 100 is complete control
[13] = Postemergence, 250 g ai/ha, scale 0 to 100, 0 no effect, 100 complete control, 13 to 15 d
[14] = postemergence, 62 g ai/ha, scale 0 to 100, 0 no effect, 100 complete control
[15] = visual rating after approx. 10 d, 0 to 100 scale (0 no effect, 100 complete control)
[16] = post-emergence, Postemergence, visual rating after approx. 10 d, 0 to 100 scale (0 no effect, 100 complete control), read-out: Plant response rating, Barnyardgrass
[17] = post-emergence, Postemergence, 0 is no effect, 100 is complete control, read-out: Barnyardgrass plant response rating
[18] = pre-emergence, Preemergence, 0 to 100 scale where 0 is no effect and 100 is complete control, read-out: Barnyardgrass plant response rating
[19] = pre-emergence, Preemergence, 0 no effect, 100 complete control, read-out: Plant response rating, Barnyardgrass
[20] = post-emergence, Postemergence, visual rating after approx. 10 d, 0 to 100 scale (0 no effect, 100 complete control), read-out: Plant response rating, Ragweed
[21] = post-emergence, Postemergence, 0 is no effect, 100 is complete control, read-out: Ragweed plant response rating
[22] = pre-emergence, Preemergence, 0 to 100 scale where 0 is no effect and 100 is complete control, read-out: Ragweed plant response rating
[23] = pre-emergence, Preemergence, 0 no effect, 100 complete control, read-out: Plant response rating, Ragweed
[24] = post-emergence, Postemergence, visual rating after approx. 10 d, 0 to 100 scale (0 no effect, 100 complete control), read-out: Plant response rating, Pigweed
[25] = post-emergence, Postemergence, 0 is no effect, 100 is complete control, read-out: Pigweed plant response rating
[26] = pre-emergence, Preemergence, 0 to 100 scale where 0 is no effect and 100 is complete control, read-out: Pigweed plant response rating
[27] = pre-emergence, Preemergence, 0 no effect, 100 complete control, read-out: Plant response rating, Pigweed
[28] = post-emergence, Postemergence, visual rating after approx. 10 d, 0 to 100 scale (0 no effect, 100 complete control), read-out: Plant response rating, Foxtail, Giant
[29] = post-emergence, Postemergence, 0 is no effect, 100 is complete control, read-out: Foxtail, Giant plant response rating
[30] = pre-emergence, Preemergence, 0 to 100 scale where 0 is no effect and 100 is complete control, read-out: Foxtail, Giant plant response rating
[31] = pre-emergence, Preemergence, 0 no effect, 100 complete control, read-out: Plant response rating, Foxtail, Giant
[32] = 0 to 100 scale where 0 is no effect and 100 is complete control

SMILES | pest or weed control at 125 g/ha [4, 15] [%] | pest or weed control at 500 g/ha [4] [%] | pest or weed control at 125 g/ha [5, 15] [%] | pest or weed control at 500 g/ha [5] [%] | pest or weed control at 125 g/ha [6, 16] [%] | pest or weed control at 500 g/ha [6, 17] [%] | pest or weed control at 125 g/ha [6, 18] [%] | pest or weed control at 500 g/ha [6, 19] [%] | Corn plant response rating (crop injury, 0 = no effect, 100 = complete kill) at 125 g/ha [7, 15] [%] | plant injury at 500 g/ha [7] [%] | pest or weed control at 125 g/ha [8, 20] [%] | pest or weed control at 500 g/ha [8, 21] [%] | pest or weed control at 125 g/ha [8, 22] [%] | pest or weed control at 500 g/ha [8, 23] [%] | pest or weed control at 500 g/ha [9, 25] [%] | pest or weed control at 125 g/ha [9, 26] [%] | pest or weed control at 500 g/ha [9, 27] [%] | pest or weed control at 500 g/ha [10, 29] [%] | pest or weed control at 125 g/ha [10, 30] [%] | pest or weed control at 500 g/ha [10, 31] [%] | also measured
CC(=O)Oc1c(C)nn(C)c(=O)c1-c1c(C)oc2ccc(C)cc12 [Compound 14, 5-(acetyloxy)-4-(2,5-dimethyl-3-benzofuranyl)-2,6-dimethyl-3(2H)-pyridazinone] | 20 | 30 | 80 | 90 | 10 | 70 | 0 | 40 | 0 | 20 | 70 | 90 | 0 | 30 | 80 | 70 | 90 | 70 | 0 | 10 | Galium plant response rating [1, 11]: 50; Plant response rating, Galium [1, 12]: 80; Plant response rating, Galium [1, 13]: 90; Galium plant response rating [1, 14]: 55; Barnyardgrass plant response rating [2, 11]: 5; Plant response rating, Barnyardgrass [2, 12]: 55; Plant response rating, Barnyardgrass [2, 13]: 60; Barnyardgrass plant response rating [2, 14]: 5; Wheat plant response rating [3, 11]: 0; Plant response rating, Wheat [3, 12]: 5; Plant response rating, Wheat [3, 13]: 5; Wheat plant response rating [3, 14]: 0; pest or weed control at 125 g/ha [9, 24]: 60%; pest or weed control at 125 g/ha [10, 28]: 10%
CC(=O)Oc1c(C)nn(C)c(=O)c1-c1c(C)oc2c(C)cccc12 [Compound 15, 5-(acetyloxy)-4-(2,7-dimethyl-3-benzofuranyl)-2,6-dimethyl-3(2H)-pyridazinone] | 0 | 50 | 70 | 90 | 70 | 90 | 20 | 90 | 0 | 20 | 50 | 50 | 0 | 30 | 0 | 0 | 0 | 90 | 10 | 70 | pest or weed control at 125 g/ha [9, 24]: 0%; pest or weed control at 125 g/ha [10, 28]: 70%
CCc1sc2cc(C)cc(C)c2c1-c1c(O)c(C)nn(C)c1=O [Compound 19, 4-(2-ethyl-4,6-dimethylbenzo[b]thien-3-yl)-5-hydroxy-2,6-dimethyl-3(2H)-pyridazinone] | 0 | 0 | 30 | 80 | 20 | 80 | 30 | 90 | 0 | 0 | 0 | 0 | 0 | 20 | 0 | 0 | 0 | 60 | 0 | 0 | pest or weed control at 125 g/ha [9, 24]: 0%; pest or weed control at 125 g/ha [10, 28]: 20%
COc1nn(C)c(=O)c(-c2c(C)c(C)cc3ccccc23)c1O [Compound 46, 4-(2,3-dimethyl-1-naphthalenyl)-5-hydroxy-6-methoxy-2-methyl-3(2H)-pyridazinone] | – | 70 | – | 90 | – | 80 | 20 | 60 | – | 0 | – | 90 | 50 | 80 | 90 | 30 | 100 | 80 | 50 | 90 | pest or weed control at 125 g/ha [4, 32]: 20%; pest or weed control at 125 g/ha [5, 32]: 70%; pest or weed control at 125 g/ha ([6]; post-emergence, Postemergence, 0 to 100 scale where 0 is no effect and 100 is complete control, read-out: Plant response rating, Barnyardgrass): 20%; Corn plant response rating (crop injury, 0 = no effect, 100 = complete kill) at 125 g/ha [7, 32]: 0%; pest or weed control at 125 g/ha ([8]; post-emergence, Postemergence, 0 to 100 scale where 0 is no effect and 100 is complete control, read-out: Plant response rating, Ragweed): 80%; pest or weed control at 125 g/ha ([9]; post-emergence, Postemergence, 0 to 100 scale where 0 is no effect and 100 is complete control, read-out: Plant response rating, Pigweed): 70%; pest or weed control at 125 g/ha ([10]; post-emergence, Postemergence, 0 to 100 scale where 0 is no effect and 100 is complete control, read-out: Plant response rating, Foxtail, Giant): 50%
